Measured values from PubChem BioAssay (NCI).
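These data come from cells grown in 96-well plates and exposed to compound for 48 hours at five concentrations. TGI marks complete inhibition of growth.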

Legend:
Test in all cases: NCI-60 cell line screen, 48 h
786-0 renal = system: 786-0 renal
A498 renal = system: A498 renal
A549 NSCLC = system: A549 NSCLC
ACHN renal = system: ACHN renal
BT-549 breast = system: BT-549 breast
CAKI-1 renal = system: CAKI-1 renal
CCRF-CEM leukemia = system: CCRF-CEM leukemia
COLO 205 colon = system: COLO 205 colon
DU-145 prostate = system: DU-145 prostate
EKVX NSCLC = system: EKVX NSCLC
HCC-2998 colon = system: HCC-2998 colon
HCT-116 colon = system: HCT-116 colon
HCT-15 colon = system: HCT-15 colon
HL-60(TB) leukemia = system: HL-60(TB) leukemia
HOP-62 NSCLC = system: HOP-62 NSCLC
HOP-92 NSCLC = system: HOP-92 NSCLC
HS 578T breast = system: HS 578T breast
HT29 colon = system: HT29 colon
IGROV1 ovarian = system: IGROV1 ovarian
K-562 leukemia = system: K-562 leukemia
KM12 colon = system: KM12 colon
LOX IMVI melanoma = system: LOX IMVI melanoma
M14 melanoma = system: M14 melanoma
MALME-3M melanoma = system: MALME-3M melanoma
MCF7 breast = system: MCF7 breast
MDA-MB-231 breast = system: MDA-MB-231 breast
MDA-MB-435 = system: MDA-MB-435
MDA-N = system: MDA-N
MOLT-4 leukemia = system: MOLT-4 leukemia
NCI-H226 lung = system: NCI-H226 lung
NCI-H23 lung = system: NCI-H23 lung
NCI-H460 lung = system: NCI-H460 lung
NCI-H522 lung = system: NCI-H522 lung
NCI/ADR-RES ovarian = system: NCI/ADR-RES ovarian
OVCAR-3 ovarian = system: OVCAR-3 ovarian
OVCAR-4 ovarian = system: OVCAR-4 ovarian
OVCAR-5 ovarian = system: OVCAR-5 ovarian
OVCAR-8 ovarian = system: OVCAR-8 ovarian
PC-3 prostate = system: PC-3 prostate
RPMI-8226 leukemia = system: RPMI-8226 leukemia
RXF 393 renal = system: RXF 393 renal
SF-268 CNS = system: SF-268 CNS
SF-295 CNS = system: SF-295 CNS
SK-MEL-2 melanoma = system: SK-MEL-2 melanoma
SK-MEL-28 melanoma = system: SK-MEL-28 melanoma
SK-MEL-5 melanoma = system: SK-MEL-5 melanoma
SK-OV-3 ovarian = system: SK-OV-3 ovarian
SN12C renal = system: SN12C renal
SNB-19 CNS = system: SNB-19 CNS
SNB-75 CNS = system: SNB-75 CNS
SR leukemia = system: SR leukemia
SW-620 colon = system: SW-620 colon
T-47D breast = system: T-47D breast
TK-10 renal = system: TK-10 renal
U251 CNS = system: U251 CNS
UACC-257 melanoma = system: UACC-257 melanoma
UACC-62 melanoma = system: UACC-62 melanoma
UO-31 renal = system: UO-31 renal
SF-539 CNS = system: SF-539 CNS

Measured: TGI

Nc1nnc2oc3ccc4ccccc4c3cc1-2
72.5 µM: SK-MEL-2 melanoma
56.8 µM: COLO 205 colon
65.4 µM: T-47D breast
67.9 µM: HL-60(TB) leukemia
89.8 µM: MALME-3M melanoma
80.1 µM: ACHN renal
80.7 µM: NCI-H226 lung
81 µM: SNB-75 CNS
97.1 µM: MDA-MB-231 breast
77.4 µM: HCC-2998 colon
87 µM: SN12C renal
72.7 µM: SR leukemia
71.8 µM: A498 renal
not listed: SF-539 CNS
> 100 µM: all other assays above

CC1OC(OCC2OC(Oc3ccc(C4CC(=O)c5c(O)cc(O)cc5O4)cc3O)C(O)C(O)C2O)C(O)C(O)C1O (stereo not given)
> 100 µM: all assays above

CC(=O)Oc1ccc(/C=C/C(=O)OCCOC(=O)/C=C/c2ccc(OC(C)=O)c(OC(C)=O)c2)cc1OC(C)=O
58.8 µM: PC-3 prostate
24.5 µM: RPMI-8226 leukemia
29.4 µM: SK-MEL-28 melanoma
22.3 µM: 786-0 renal
18.7 µM: NCI-H23 lung
22.6 µM: UACC-257 melanoma
> 44.6 µM: HL-60(TB) leukemia
22.1 µM: KM12 colon | U251 CNS
21.3 µM: RXF 393 renal
> 77.9 µM: SNB-19 CNS
23.5 µM: MDA-N
25.3 µM: M14 melanoma
20.7 µM: SR leukemia
62.7 µM: HS 578T breast
17 µM: NCI-H522 lung
20.9 µM: HCT-116 colon
26.7 µM: HOP-92 NSCLC
52.5 µM: A498 renal
41.5 µM: NCI-H226 lung
> 28.6 µM: OVCAR-3 ovarian
25.4 µM: SF-295 CNS
> 56.7 µM: HT29 colon
28.2 µM: COLO 205 colon
22.5 µM: SNB-75 CNS
13.4 µM: SF-539 CNS
10.7 µM: IGROV1 ovarian
33.8 µM: HCT-15 colon
28 µM: MDA-MB-435
> 60.1 µM: OVCAR-5 ovarian
28.4 µM: OVCAR-4 ovarian
56.5 µM: SF-268 CNS
53 µM: BT-549 breast
> 38.5 µM: MOLT-4 leukemia
6.12 µM: CCRF-CEM leukemia
35 µM: OVCAR-8 ovarian | SK-OV-3 ovarian
15.3 µM: UO-31 renal
50.3 µM: A549 NSCLC
43 µM: T-47D breast
55.6 µM: SK-MEL-2 melanoma
49 µM: SW-620 colon
37.2 µM: TK-10 renal
45 µM: EKVX NSCLC
32 µM: NCI-H460 lung
69 µM: SN12C renal
16.3 µM: LOX IMVI melanoma | NCI/ADR-RES ovarian | UACC-62 melanoma
11.6 µM: CAKI-1 renal
20.1 µM: SK-MEL-5 melanoma
35.8 µM: ACHN renal
30.1 µM: MALME-3M melanoma
> 100 µM: K-562 leukemia
52.4 µM: MDA-MB-231 breast
5.23 µM: HOP-62 NSCLC
28.6 µM: all other assays above

CCCCCC(=Nc1n[nH]nc1C(N)=O)OCC
> 100 µM: all assays above
